Assay results from US4833146A, “Tertiary hydroxyalkylxanthines, medicaments containing them and their use” (priority 1985, dated 1989).
Read-outs that look alike come from different tables or passages of the source.

What was measured:
[1] = animals and humans, cited from earlier work; for "liver first-pass" effect: especially on oral administration; for biotransformation: enzymatic oxidation of the oxo- or hydroxyhexyl side chain
[2] = tested on: NMRI mice; experiment: in vivo; settings: single dose, 7 days, Table 3
Method: (§1) The LD50 ranges were determined by the standard method via the mortality which arose within 7 days in NMRI mice following a single intravenous (i.v.) or intraperitoneal (i.p.) dose (NMRI=Naval Medical Research Institute).

[3] = in vivo; settings: mouse, in vivo, single dose, 7 days, read-out: Toxicity LD50 (mouse)
Method: as §1

[4] = tested on: regional cerebral circulation; experiment: Action on regional cerebral circulation of anesthetized cats (heat conducting technique); type: in vivo, cats of both sexes; settings: Felis catus, iv, 3 mg/kg i.v., read-out: Average increase in cerebral circulation as Δλ in %
Method: The percentage increase in the heat transport number λ after administration of the product is thus a measure of the improvement in circulation.
The compounds were administered intravenously in aqueous solution. The dose was 3 mg of test substance per kg of body weight. 3 to 5 individual experiments were carried out for each test product, and the average percentage increase in cerebral circulation was determined from the measurement data obtained.

[5] = tested on: ischemic skeletal muscle; experiment: Action on disturbed peripheral arterial circulation: pO2 in ischemic skeletal muscle, occlusion model on dogs; type: in vivo, male beagle dogs; set-up: key: W = % frequency of positive experiments × mean % pO2 increase; settings: dog occlusion model
Method: The experimental animals used were male beagle dogs under sodium pentobarbital anesthesia (35 mg/kg intraperitoneally), on whose right hind extremity the femoral artery and a certain area of the lower leg muscle was exposed and on whose left hind extremity the femoral vein was exposed and a cannula inserted for infusion of the product and the femoral artery was exposed and a cannula inserted for blood pressure measurements. The animals were relaxed by administration of alcuronium chloride (0.1 mg/kg intravenously and then 0.05 mg/kg intraperitoneally every 30 minutes) and artificially ventilated in order on the one hand to avoid spontaneous contractions of the muscle with an adverse effect on the pO2 measurements and on the other hand to guarantee a uniform supply of respiratory oxygen. Another catheter inserted into the femoral vein of the right hind extremity was used to monitor the lactate concentration in the venous outflow. […]
In each experiment, the maximum percentage rise in the pO2 following administration of the substance during vascular occlusion was used as the measurement parameter for the action of the product (n=2-11). A dimensionless activity index W was calculated from three measurement values for each compound by obtaining the product of the percentage frequency of positive experiments and the average percentage increase in pO2 resulting from the positive individual values, this index both taking into account interindividual differences in the topology of the vascularization of the muscle and also recording responders and nonresponders to the test compounds and accordingly permitting a more reliable activity comparison amongst the individual products.

[6] = tested on: ischemic skeletal muscle; experiment: Chronic experiment: contractility of the ischemic skeletal muscle in rats with a ligated right femoral artery; type: in vivo; settings: 25 mg/kg daily oral, 20 days
Method: The superiority of the xanthines of the formula I was also to be seen from another chronic experiment in which the influence on the contractility of the ischemic skeletal muscle in rats with a ligated right femoral artery was investigated. The animals received the particular test product in a daily oral dose of 25 mg/kg by a stomach tube for 20 days. Thereafter, the fatigability of the ischemic muscle on electrical stimulation with about 80 contractions per minute was determined via the decrease in contractile force after stimulation for 1, 15 and 45 minutes in comparison with untreated control animals. […] This improvement was accompanied by an increase in the mitochondrial respiratory control rate (RCR). […] The compounds according to the invention are accordingly also suitable for the treatment of muscular energy metabolism disorders of various causes, particularly mitochondrial myopathy.

[7] = tested on: ischemic skeletal muscle (tibialis anterior and extensor digitorum longus); experiment: Chronic experiment on rats with unilateral occlusion of the iliac artery: metabolism in ischemic skeletal muscle (histochemical staining); type: in vivo
[8] = tested on: isolated perfused rabbit ear; experiment: Inhibiting effect on vascular contraction induced with norfenefrine on the isolated perfused rabbit ear
Description: It is today generally recognized that exclusively vasodilating drugs or agents with a very potent vasodilating action component are unsuitable for the treatment of disturbances in the microcirculation because, on the one hand, the physiological vasodilatory reserve as a rule is already completely exhausted, and on the other hand there is the risk of a steal phenomenon, which means a harmful redistribution of the nutritive blood flow in the microcirculation at the expense of the already undersupplied diseased tissue. The inhibiting effect on vascular contraction induced with norfenefrine on the isolated perfused rabbit ear was therefore investigated.

| Compound | change in vivo at 3 mg/kg [4] [%] | Activity index W ([5]; i.d. 25 mg/kg) | Activity index W ([5]; i.v. 0.6 mg/kg/min) | also measured |
| --- | --- | --- | --- | --- |
| CC(O)CCCCn1c(=O)c2c(ncn2C)n(C)c1=O (stereo not shown) [1-(5-hydroxyhexyl)-3,7-dimethylxanthine] |  |  |  | "liver first-pass" effect [1]: pronounced; biotransformation [1]: rapid and complete |
| CCCn1c(=O)c2c(ncn2CCCCC(C)(C)O)n(C)c1=O [Example 3, 7-(5-Hydroxy-5-methylhexyl)-3-methyl-1-propylxanthine] | 15.5 | 1250 | 1650 | Toxicity LD50 (mouse) ([2]; i.v.): 100 to 200 mg/kg; LD50 at 168 h ([3]; iv, Table 2): 100 to 200 mg/kg |
| Cn1c(=O)c2c(ncn2CCCCC(C)(C)O)n(C)c1=O [Example 4, 7-(5-Hydroxy-5-methylhexyl)-1,3-dimethylxanthine] |  |  | 1300 | LD50 at 168 h ([3]; iv, Table 2): 100 to 200 mg/kg |
| CCOCn1cnc2c1c(=O)n(CCCCC(C)(C)O)c(=O)n2C [Example 5, 7-Ethoxymethyl-1-(5-hydroxy-5-methylhexyl)-3-methylxanthine] |  | 2909 |  | mitochondrial respiratory control rate (RCR) [6]: increase; contractility values reached in the ischemic muscle ([6]; compared with healthy muscle of untreated animals): normal contractility values like those in the left healthy (non-ischemic) muscle of untreated animals being reached; muscular performance in the ischemic extremity ([6]; electrical stimulation for 1, 15 and 45 minutes): significant improvement; LD50 at 168 h ([3]; ip, Table 2): 300 to 600 mg/kg; LD50 at 168 h ([3]; iv, Table 2): 150 to 300 mg/kg; proportion of oxidative fibers in the two muscles of the ischemic extremity ([7]; 3 mg/kg intraperitoneally three times daily, 5 weeks): increased significantly; inhibition of the norfenefrine action ([8]; up to a concentration of 100 μg/ml): no inhibition; Activity index W ([5]; i.v. 0.3 mg/kg/min): 2080 |
| Cn1c(=O)n(CCCCC(C)(C)O)c(=O)c2[nH]cnc21 [Example 6, 1-(5-Hydroxy-5-methylhexyl)-3-methylxanthine] |  | 700 |  |  |
| CC(O)Cn1cnc2c1c(=O)n(CCCCC(C)(C)O)c(=O)n2C (stereo not shown) [Example 8, 1-(5-Hydroxy-5-methylhexyl)-7-(2-hydroxypropyl)-3-methylxanthine] |  |  | 1400 |  |
| CCCn1cnc2c1c(=O)n(CCCCC(C)(C)O)c(=O)n2C [Example 9, 1-(5-Hydroxy-5-methylhexyl)-3-methyl-7-propylxanthine] | 9.4 |  |  | LD50 at 168 h ([3]; iv, Table 3): 100 to 200 mg/kg |
| CCC(C)(O)CCCCn1c(=O)c2c(ncn2C)n(C)c1=O (stereo not shown) [Example 10, 1-(5-Hydroxy-5-methylheptyl)-3,7-dimethylxantine] |  | 1965 |  |  |
| CCCn1cnc2c1c(=O)n(CCCC(C)(C)O)c(=O)n2C [Example 12, 1-(4-Hydroxy-4-methylpentyl)-3-methyl-7-propylxanthine] |  | 2337 | 866 |  |
| Cn1cnc2c1c(=O)n(CCCCC(C)(C)O)c(=O)n2C [Example 14, 1-(5-Hydroxy-5-methylhexyl)-3,7-dimethylxanthine] |  |  | 960 |  |
| CCCn1cnc2c1c(=O)n(CCCCCC(C)(C)O)c(=O)n2C [Example 16] | 25.8 |  | 999 | Toxicity LD50 (mouse) ([2]; i.p.): 150 to 300 mg/kg; LD50 at 168 h ([3]; ip, Table 2): 150 to 300 mg/kg |
| CCn1c(=O)n(CCCCC(C)(C)O)c(=O)c2c1ncn2C [Example 17] | 9.4 |  | 1525 | LD50 at 168 h ([3]; iv, Table 3): > 200 mg/kg |
| CCCn1cnc2c1c(=O)n(CCCCC(C)(C)O)c(=O)n2CC [Example 18] | 9.4 |  | 1578 | Toxicity LD50 (mouse) ([2]; i.v.): 100 to 200 mg/kg; LD50 at 168 h ([3]; iv, Table 2): 100 to 200 mg/kg |
| CCCn1cnc2c1c(=O)n(CCCC(C)(C)O)c(=O)n2CC [Example 22] | 12 |  |  | LD50 at 168 h ([3]; iv, Table 3): > 200 mg/kg |
| COCn1cnc2c1c(=O)n(CCCCCC(C)(C)O)c(=O)n2C [Example 27] | 10.3 |  |  | LD50 at 168 h ([3]; iv, Table 3): > 200 mg/kg |
| COCn1cnc2c1c(=O)n(CCCCC(C)(C)O)c(=O)n2C [Example 28] |  | 2100 |  |  |
| COCn1cnc2c1c(=O)n(CCC(C)(C)O)c(=O)n2C [Example 32] |  | 566 | 2650 |  |
| CCn1c(=O)n(CCCCC(C)(C)O)c(=O)c2c1ncn2CCOC [Example 37] |  | 950 | 1400 |  |
| CCOCCn1cnc2c1c(=O)n(CCCCC(C)(C)O)c(=O)n2C [Example 39] |  | 1996 | 1567 |  |
| CCn1c(=O)n(CCCCC(C)(C)O)c(=O)c2c1ncn2CCCOC [Example 43] | 19.8 |  |  | LD50 at 168 h ([3]; iv, Table 3): > 200 mg/kg |
| COCCOCn1cnc2c1c(=O)n(CCCCC(C)(C)O)c(=O)n2C [Example 44] |  |  | 1199 |  |
| CCOCCOCCn1cnc2c1c(=O)n(CCCCC(C)(C)O)c(=O)n2CC [Example 48] | 14.6 |  |  | LD50 at 168 h ([3]; iv, Table 3): > 200 mg/kg |
| Cn1c(=O)n(CCCCC(C)(C)O)c(=O)c2c1ncn2CCCO [Example 50] |  | 733 | 2631 |  |
| CC(=O)CCCCn1c(=O)c2c(ncn2C)n(C)c1=O [Pentoxifylline, 3,7-dimethyl-1-(5-oxohexyl)-xanthine, reference compound] | 8.6 |  |  | action in these experiments (ischemic muscle contractility) [6]: no action; influence on muscular metabolism in the ischemic skeletal muscle ([7]; chronic experiment, iliac artery occlusion): no direct influence; dilating effect on the norfenefrine-contracted vessels ([8]; concentration range from 10 to 100 μg/ml): dose-dependent dilating effect; "liver first-pass" effect [1]: pronounced; biotransformation [1]: rapid and complete |
